Read-outs that look alike come from different tables or passages of the source.
Legend:
G144 [1] = experiment: MTT-based cytotoxicity assay, G144; format: cell-based, human; conditions: Homo sapiens, 72 h, G144, MTT
Method: (§1) A dose-response analysis of BMT9 (concentrations ranging from 4.5 µM-18 µM), BCNU (from 150 µM-500 µM) and TMZ (350 µM-700 µM) was performed in two conventional glioblastoma cell lines (T98G, U373) and the GNS cell line G144 by MTT-based cytotoxicity assays (Figure 5A-D). Cells were seeded on p96-well plates and treated with the different compounds for 72 h. Then, the MTT reagent (3-(4,5-Dimethyl-2-thiazolyl)-2,5-diphenyl-2H-tetrazolium bromide diluted in PBS to a concentration of 1mg/ml), was added to each well to a final concentration of 0.33mg/ml, and incubated for 3 h at 37°C. After that, the media was removed, and formazan crystals were solubilized with DMSO. Absorbance was measured at 560 nm using a "Synergy HT" plate reader (Biotek). In the graphs, the Y axis represents the percentage of cell viability relative to non-treated cells. The IC50, when reached are marked by a rectangle. DMSO treatment had no effect on cell viability.
Previous studies have reported that the molecular signature of the GNSC G144 cell line corresponds to a 'proneural' subtype of GB with NSC features (Pollard et al., 2009; Danovi et al., 2013). Thus, to test BMT9 specificity we compared cellular viability when treating CD133-positive cells (either GNSCs or normal human fetal neural stem cells-NSC) versus CD133-negative human embryonic fibroblast (HEFs) (Figure 8A). MTT-based cytotoxicity assay (Figure 7B-D) were performed as previously described.
While the first line therapy of gliomas has proven its effectiveness and improved clinical outcomes, acquired chemoresistance to alkylating agents has been identified as a major cause of treatment failure (Sarkaria et al., 2008). In a murine model of GB, long-term treatment with subtoxic TMZ doses enriched the side population of cancer stem cells, increasing the tumor aggressiveness (Bleau et al., 2009). Thus, we generated TMZ-resistant G144-clones that were selected upon treatment with TMZ either at 500 µM or 700 µM for several months (R500 and R700, respectively). The obtained clones maintained CD133 stem marker expression (Figure 9A). We then analyzed BMT9 dose-dependent effect on cell viability, by MTT assay, comparing the resistant clones to parental cells.

T98G = experiment: MTT-based cytotoxicity assay, T98G; format: cell-based; conditions: Homo sapiens, 72 h
Method: as §1

G144 [2] = conditions: called 'known'; cell line not stated, used in G144 parental and resistant clone experiment; cited from earlier work
U373 = experiment: MTT-based cytotoxicity assay, U373; format: cell-based; conditions: Homo sapiens, U373 MG, 72 h
Method: as §1

GNSCs = experiment: MTT assay of BMT9 analogues against GNSCs; format: cell-based; conditions: 48 and 72 h
Method: as §1
The cytotoxicity of two BMT9 analogues synthetized by Instituto Biomar S.A. was evaluated by MTT assays.

P1-TP73 promoter = experiment: P1-p73-Fluc-DsRed reporter validation in HCT116 p53-/- cells; format: cell-based, human; conditions: HCT116 p53-/- cells transfected with P1-p73-FlucDsRed vector, cultured with Doxo, 24 and 48 hours
Source text: A bimodal reporter vector, named P1-p73-Fluc-DsRed2, was engineered based on the previously published lentiviral system LV-CMV-Fluc-dsRed2 (Shah et al., 2008). […] Using this backbone, the CMV promoter was swapped for a 930 bp fragment of the human P1-TP73 promoter contained in the P1-p73-Luc-pGL3-Basic vector (-859 to +71 of TP73 gene) (Seelan et al., 2002) (Figure 1A'). To validate the generated system, we used the HCT116 p53-/- cells in which endogenous TAp73 expression can be induced by the genotoxic drug doxorubicin (Doxo), at RNA and protein levels (Figure 1B and Vossio et al., 2002, respectively). Next, we tested whether the engineered reporter vector could monitor these changes in endogenous TAp73 RNA levels. For this purpose, HCT116 p53-/- cells were either non-transfected (NT) or transfected with P1-p73-FlucDsRed vector and cultured with Doxo (black square fill pattern bar) or without treatment (grey bar) for the indicated time points (Figure 1C), at which the fluorescence levels (DsRed, Y axis) were measured by fluorimetry.
As depicted in Figure 1C, we detected an increase in endogenous P1-promoter activity after 24 and 48 hours of culture […].

In the case of `O=NN(CCCl)C(=O)NCCCl` [BCNU, carmustine, reference compound], the IC50 (G144 [1]) is listed as 250 µM, the IC50 (T98G) is listed as 500 µM and the IC50 (G144 [2]) is listed as 500 µM. The IC50 (U373) was 250 µM.
`C=C1C2CCC(C)(C3COc4c(C=O)c5c(c(OC)c4C3O)C(=O)OC5OC(C)=O)C1CCC2(C)C` (stereo not shown) [BMT9.5] gave an IC50 (GNSCs) of at most 4.5 µM.
With `C=C1C2CCC(C)(C3COc4c(C=O)c5c(c(OC)c4C3O)C(=O)OC5O)C1CCC2(C)C` (stereo not shown) [BMT9.2] the IC50 (GNSCs) was at most 4.5 µM.
For `COc1cccc2c1C(=O)c1c(O)c3c(c(O)c1C2=O)C[C@@](O)(C(=O)CO)C[C@@H]3O[C@H]1C[C@H](N)[C@H](O)[C@H](C)O1` [Doxo, doxorubicin], the “reporter activity (DsRed fluorescence)” value (P1-TP73 promoter) was “increase in reporter activity that was sustained after 48 hours”.

Source: patent EP4349409A1, “COMPOUNDS FOR THE MANAGEMENT OF CELL STEMNESS AND INVASION IN CANCER AND RELATED DISEASES” (Instituto Biomar S.A., priority 2022, dated 2024)
